Reference: patent US10221426B2, “Constitutively active PYR/PYL receptor proteins for improving plant stress tolerance” (The Regents of the University of California, priority 2009, dated 2019)

Biological target: T1, PYR1 and PP2Cs (GST-HAB1, GST-ABI1, GST-ABI2) (Arabidopsis thaliana, UniProt O49686)
T1 construct: made in house; host or cells: E. coli BL21[DE3]pLysS
T1 sequence (O49686 1-191): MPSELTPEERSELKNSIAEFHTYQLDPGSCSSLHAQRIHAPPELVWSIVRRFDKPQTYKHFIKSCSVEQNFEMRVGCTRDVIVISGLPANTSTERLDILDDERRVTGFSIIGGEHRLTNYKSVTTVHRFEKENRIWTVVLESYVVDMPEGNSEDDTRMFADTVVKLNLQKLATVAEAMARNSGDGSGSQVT
T1 sequence (Q9CAJ0 1-511 partner): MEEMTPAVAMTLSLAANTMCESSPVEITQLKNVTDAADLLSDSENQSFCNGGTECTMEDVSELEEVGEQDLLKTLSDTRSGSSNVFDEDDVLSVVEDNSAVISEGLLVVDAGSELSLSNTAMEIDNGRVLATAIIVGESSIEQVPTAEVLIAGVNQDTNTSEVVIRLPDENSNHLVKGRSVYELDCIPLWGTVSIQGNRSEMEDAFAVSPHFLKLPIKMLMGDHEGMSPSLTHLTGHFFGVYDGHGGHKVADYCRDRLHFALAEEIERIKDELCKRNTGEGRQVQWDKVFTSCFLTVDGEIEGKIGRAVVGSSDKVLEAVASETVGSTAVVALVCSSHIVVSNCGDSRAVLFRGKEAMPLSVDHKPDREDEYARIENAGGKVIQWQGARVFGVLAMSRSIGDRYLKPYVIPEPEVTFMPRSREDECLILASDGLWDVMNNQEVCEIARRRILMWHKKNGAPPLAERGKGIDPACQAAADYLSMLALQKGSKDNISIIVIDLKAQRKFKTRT
Experiment: Pull-down assay of 6×His-PYR1 with GST-PP2Cs
Assay type: binding
Conditions: purified recombinant proteins; 10 μM (+)-ABA
Method: To explore the functional implications of the PYR1-PP2C interaction, we examined if an ABA response could be reconstituted in vitro. Recombinant GST-HAB1, GST-ABI1 and GST-ABI2 were expressed in E. coli and tested for ligand-dependent interactions with 6×His-PYR1 in pull-down assays. Purified 6×His-PYR1 and GST-HAB1 (20 and 100 μg respectively, 8 μM PYR1 final concentration), were combined in 100 μl TBS containing 10 μM (+)-ABA or 1% DMSO for negative control. The reaction was incubated for 90 minutes at RT and 5 μl of PrepEase (USB) His-tagged protein purification resin was added. The resin and reaction mixture was incubated 30 min at RT with gentle shaking at 5 min intervals. The resin was washed five times with TBS containing 10 μM (+)-ABA. After the final wash, the bound protein was eluted in 20 μl SDS-PAGE buffer, boiled for 5 minutes and centrifuged. 5 μl of eluate was analyzed on SDS-PAGE. For pull-downs with ABI1 and ABI2, crude lysates were used in a similar method, except purified PP2C was replaced with cleared E. coli lysates. The amount of lysate added was determined by SDS-page analysis to yield ˜100 μg PP2C, such that the same stoichiometry was used as in assays using purified proteins.

| Structure (SMILES) | ligand-dependent PP2C interaction with 6×His-PYR1 in pull-down |
| --- | --- |
| CC1=CC(=O)CC(C)(C)C1(O)/C=C/C(C)=C\C(=O)O (single isomer, unassigned; (+)) [(+)-ABA] | promote PP2C interactions with PYR1 |
| O=S(=O)(NCc1ccccn1)c1ccc(Br)c2ccccc12 [pyrabactin] | promote PP2C interactions with PYR1 |
